Measured values reported in patent US5886165A, “Mixed backbone antisense oligonucleotides containing 2'-5'-ribonucleotide- and 3'-5'-deoxyribonucleotides segments” (Hybridon, Inc., priority 1996, dated 1999).
[25] = 2'-5' internucleotide linkage (phosphodiester)

How the values were obtained:
[1] = Stability in DMEM cell culture medium containing 10% fetal calf serum; type: in vitro ADME; conditions: DMEM with 10% non-heat-inactivated fetal calf serum, 37° C.
Experimental: Oligonucleotides were labeled at the 5'-end with ^32 P using γ-^32 P-ATP (Amersham) and T4 polynucleotide kinase (Promega). Sambrook et al, Molecular Cloning, supra. Stability of the oligonucleotides in cell culture medium containing 10% fetal calf serum was tested by incubating a small amount of labeled oligonucleotide together with 100 ng of cold oligonucleotide in DMEM cell culture medium (Gibco/BRL, Grand Island, N.Y.) containing 10% non-heat-inactivated fetal calf serum (Gibco/BRL) at 37° C. in a final volume of 40 μl, and aliquots were removed at different times.

[2] = test system: DNA target strand SEQ ID NO 10 (25 base sequence from the initiation codon region of the HIV-1 gag mRNA); experiment: Thermal melting study, duplex with DNA target strand; type: binding
Experimental: (§1) Thermal denaturation studies were carried out by mixing MBOs with the DNA or RNA target strands in equimolar ratios in 10 mM disodium hydrogen phosphate, pH 7.5±0.1, 100 mM sodium chloride buffer, heated to 95° C. for 10 min, and allowed to come to room temperature slowly before being stored at 4° C. overnight. The final total concentration of the oligonucleotide strands was 2.0 μM. Spectrophotometric measurements were performed at 260 nm using 1 cm path length quartz cuvettes at a heating rate of 0.5° C./min on a Perkin-Elmer (Norwalk, Conn.) Lambda 2 Specotrometer attached to a thermal controller and a personal computer. Melting temperatures (Tm) taken as the temperature of half-dissociation and were obtained from first derivative plots. Precision in Tm values estimated from variance in two or three repeated experiments was ±0.5° C.

[3] = test system: Spleen cells (CD1 mouse); experiment: In vitro cell proliferation assay ([3H]thymidine); type: cell-based; conditions: at 10 μg/ml, 48 hrs
Experimental: Cell proliferation assays were carried out as described earlier (Zhao et al., Biochem. Pharmacol 51, 173-182 (1996)). Spleen cells (4-5 week old male CD1 mouse, 20-22 gm, Charles River, Wilmington, Mass.) suspensions were prepared and plated in 96-well dishes at a density of 10^6 cells/ml in a final volume of 100 μl. The cells were incubated at 37° C. after adding 10 μl of oligonucleotides. After 44 hrs incubation, 1 μCi [3H]thymidine (Amersham, Arlington Heights, Ill.) was added and the cells were pulse-labeled for another 4 hrs. The cells were harvested by an automatic cell harvester and the filters were counted by a scintillation counter. All experiments were carried out in triplicate.

[4] = test system: citrated normal human donor plasma; experiment: Clotting assay, activated partial thromboplastin time (aPTT); conditions: compared to saline control
Experimental: The activated partial thromboplastin time (aPTT) was performed with citrated normal human donor plasma in duplicate on an Electra 1000C (Medical Laboratory Automation, Mount Vernon, N.Y.) according to recommended procedures using Actin FSL (Baxter Dade, Miami, Fla.) and 2.5 mM calcium to initiate clot formation, which was measured photometrically. Normal plasma aPTT values ranged from 27 to 39 sec. Data were calculated as 50% of prolongation as compared to the saline control.

[5] = test system: RNA target strand SEQ ID NO 9 (25 base sequence from the initiation codon region of the HIV-1 gag mRNA); experiment: Thermal melting study, duplex with RNA target strand; type: binding
Experimental: as §1

[6] = test system: snake venom phosphodiesterase; experiment: Snake venom phosphodiesterase assay; type: in vitro ADME; conditions: 0.01 U, 21° C.; compared with SEQ ID NO 7
Experimental: (§2) For snake venom phosphodiesterase assay, labeled oligonucleotide with cold oligonucleotide in a buffer (10 mM Tris, pH 8.0, 100 mM sodium chloride, and 10 mM magnesium chloride) was incubated with 0.01 U of snake venom phosphodiesterase (Boehringer-Mannheim, Indianapolis, Ind.) at 21° C. (final volume 40 μl). Aliquots were removed at different time intervals for electrophoretic gel analysis. For S1 nuclease assay, reactions were carried out as above but in […] sodium acetate, pH 5.0, 10 mM zinc acetate buffer and with 1.4 U of S1 nuclease (Gibco/BRL) incubated at 37° C. in a final volume of 50 μl. Aliquots were removed at different time intervals for electrophoretic gel analysis. Nuclease reactions were stopped by adding 5 μl of formamide gel loading buffer to each sample and heating at 90° C. for 5 min. All the samples were then run by 20% PAGE (7M urea) and visualized by autoradiography.

[7] = molecular target: T1, S1 nuclease (Aspergillus oryzae, UniProt P24021); experiment: S1 nuclease assay; type: in vitro ADME; conditions: 1.4 U, 37° C., pH 5.0
T1 construct: purchased Gibco/BRL
T1 sequence (P24021 21-287): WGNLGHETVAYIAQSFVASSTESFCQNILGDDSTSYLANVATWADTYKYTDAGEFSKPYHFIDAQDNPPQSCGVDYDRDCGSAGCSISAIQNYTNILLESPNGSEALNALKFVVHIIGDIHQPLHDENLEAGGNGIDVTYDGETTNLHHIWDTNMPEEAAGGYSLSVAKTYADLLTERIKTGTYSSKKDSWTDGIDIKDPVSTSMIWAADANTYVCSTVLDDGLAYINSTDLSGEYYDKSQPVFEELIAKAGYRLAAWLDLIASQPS
Experimental: as §2

SEQ ID NO 1: Phosphodiester MBO with three 2'-5'-linkages at each of the 5'- and 3'-ends, complementary to HIV-1 gag mRNA (antisense CUCTCGCACCCATCTCTCTCCUUCT; linkages [25]3 o18 [25]3 (s phosphorothioate, o phosphodiester), sugars by position and methylation of C not given here)
stability in serum (in words) [1]: intact up to four hours
Tm DNA ([2]; duplex with DNA SEQ ID NO 10, 10 mM disodium hydrogen phosphate pH 7.5, 100 mM NaCl, 2.0 μM total strands): 60.6 °C
Tm lower than duplex of control oligonucleotide SEQ ID NO 7, DNA target ([2]; vs SEQ ID NO 7, DNA SEQ ID NO 10): about 2.9 °C
Stimulation Index (Lymphocyte Proliferation) [3]: 0.67 ± 0.11
50% Prolongation of Clotting (aPTT) ([4]; human plasma): > 100.0 µg/mL
effect in coagulation assay (in words) ([4]; up to 100 μg/ml dose): negligible effect
Tm RNA ([5]; duplex with RNA SEQ ID NO 9, 10 mM disodium hydrogen phosphate pH 7.5, 100 mM NaCl, 2.0 μM total strands): 67.8 °C
Tm lower than duplex of control oligonucleotide SEQ ID NO 7, RNA target ([5]; vs SEQ ID NO 7, RNA SEQ ID NO 9): ~2.7 °C
stability against snake venom phosphodiesterase (in words) [6]: slightly higher stability
digestion by S1 nuclease (in words) [7]: quickly digested
